Data published in the NIST ThermoML archive (doi:10.1016/j.jct.2015.05.024).
± gives the expanded uncertainty stated by the source.

Experiment: xn = mol fraction of the nth substance listed
Details: 100 kPa, Liquid; for mass density: Vibrating tube method; for speed of sound: Frequency=5 MHz, Pulse-echo method

OCCOCCOCCO [triethylene glycol] + O
Details | mass density [kg/m3] | speed of sound [m/s]
278.15 K, x1 = 0.0107 | 1013.31 ± 0.26 | –
278.15 K, x1 = 0.02047 | 1024.39 ± 0.23 | –
278.15 K, x1 = 0.03972 | 1043.4 ± 0.22 | –
278.15 K, x1 = 0.04979 | 1051.97 ± 0.19 | –
278.15 K, x1 = 0.06996 | 1066.64 ± 0.17 | –
278.15 K, x1 = 0.09424 | 1080.57 ± 0.15 | –
278.15 K, x1 = 0.1481 | 1100.99 ± 0.14 | –
278.15 K, x1 = 0.2006 | 1112.25 ± 0.14 | –
278.15 K, x1 = 0.2502 | 1118.67 ± 0.15 | –
278.15 K, x1 = 0.2988 | 1122.73 ± 0.15 | –
278.15 K, x1 = 0.3492 | 1125.61 ± 0.16 | –
278.15 K, x1 = 0.3925 | 1127.4 ± 0.17 | –
278.15 K, x1 = 0.4502 | 1129.18 ± 0.18 | –
278.15 K, x1 = 0.4877 | 1130.08 ± 0.18 | –
278.15 K, x1 = 0.5004 | 1130.35 ± 0.19 | –
278.15 K, x1 = 0.5739 | 1131.64 ± 0.2 | –
278.15 K, x1 = 0.58 | 1131.73 ± 0.2 | –
278.15 K, x1 = 0.6465 | 1132.58 ± 0.22 | –
278.15 K, x1 = 0.651 | 1132.63 ± 0.22 | –
278.15 K, x1 = 0.7008 | 1133.14 ± 0.23 | –
278.15 K, x1 = 0.7471 | 1133.54 ± 0.24 | –
278.15 K, x1 = 0.7677 | 1133.7 ± 0.25 | –
278.15 K, x1 = 0.82 | 1134.08 ± 0.27 | –
278.15 K, x1 = 0.8623 | 1134.35 ± 0.28 | –
278.15 K, x1 = 0.8792 | 1134.45 ± 0.29 | –
278.15 K, x1 = 0.8975 | 1134.56 ± 0.3 | –
278.15 K, x1 = 0.9203 | 1134.69 ± 0.31 | –
278.15 K, x1 = 0.9514 | 1134.86 ± 0.32 | –
278.15 K, x1 = 0.9692 | 1134.96 ± 0.33 | –
278.15 K, x1 = 1 | 1135.14 ± 0.34 | –
283.15 K, x1 = 0.0107 | 1012.65 ± 0.26 | –
283.15 K, x1 = 0.02047 | 1023.4 ± 0.23 | –
283.15 K, x1 = 0.03972 | 1041.83 ± 0.22 | –
283.15 K, x1 = 0.04979 | 1050.13 ± 0.19 | –
283.15 K, x1 = 0.06996 | 1064.35 ± 0.17 | –
283.15 K, x1 = 0.09424 | 1077.85 ± 0.15 | –
283.15 K, x1 = 0.1481 | 1097.71 ± 0.14 | –
283.15 K, x1 = 0.2006 | 1108.7 ± 0.14 | –
283.15 K, x1 = 0.2502 | 1115 ± 0.15 | –
283.15 K, x1 = 0.2988 | 1119.01 ± 0.15 | –
283.15 K, x1 = 0.3492 | 1121.86 ± 0.16 | –
283.15 K, x1 = 0.3925 | 1123.64 ± 0.17 | –
283.15 K, x1 = 0.4502 | 1125.41 ± 0.18 | –
283.15 K, x1 = 0.4877 | 1126.3 ± 0.18 | –
283.15 K, x1 = 0.5004 | 1126.57 ± 0.18 | –
283.15 K, x1 = 0.5739 | 1127.85 ± 0.2 | –
283.15 K, x1 = 0.58 | 1127.94 ± 0.2 | –
283.15 K, x1 = 0.6465 | 1128.79 ± 0.22 | –
283.15 K, x1 = 0.651 | 1128.84 ± 0.22 | –
283.15 K, x1 = 0.7008 | 1129.34 ± 0.23 | –
283.15 K, x1 = 0.7471 | 1129.73 ± 0.24 | –
283.15 K, x1 = 0.7677 | 1129.89 ± 0.25 | –
283.15 K, x1 = 0.82 | 1130.26 ± 0.27 | –
283.15 K, x1 = 0.8623 | 1130.52 ± 0.28 | –
283.15 K, x1 = 0.8792 | 1130.62 ± 0.29 | –
283.15 K, x1 = 0.8975 | 1130.73 ± 0.29 | –
283.15 K, x1 = 0.9203 | 1130.86 ± 0.3 | –
283.15 K, x1 = 0.9514 | 1131.03 ± 0.32 | –
283.15 K, x1 = 0.9692 | 1131.12 ± 0.32 | –
283.15 K, x1 = 1 | 1131.29 ± 0.34 | –
288.15 K, x1 = 0.000601 | – | 1469.7 ± 1.4
288.15 K, x1 = 0.001928 | – | 1476.6 ± 1.4
288.15 K, x1 = 0.00461 | – | 1490.1 ± 1.4
288.15 K, x1 = 0.008532 | – | 1508.9 ± 1.4
288.15 K, x1 = 0.0107 | 1011.72 ± 0.25 | –
288.15 K, x1 = 0.01366 | – | 1532 ± 1.3
288.15 K, x1 = 0.01989 | – | 1557.7 ± 1.3
288.15 K, x1 = 0.02047 | 1022.17 ± 0.22 | –
288.15 K, x1 = 0.02548 | – | 1578.7 ± 1.2
288.15 K, x1 = 0.03449 | – | 1609.1 ± 1.2
288.15 K, x1 = 0.03972 | 1040.07 ± 0.21 | –
288.15 K, x1 = 0.04517 | – | 1639.9 ± 1.2
288.15 K, x1 = 0.04979 | 1048.13 ± 0.18 | –
288.15 K, x1 = 0.05131 | – | 1655.2 ± 1.2
288.15 K, x1 = 0.05713 | – | 1668.3 ± 1.1
288.15 K, x1 = 0.06261 | – | 1679.5 ± 1.1
288.15 K, x1 = 0.0692 | – | 1691.5 ± 1.1
288.15 K, x1 = 0.06996 | 1061.93 ± 0.17 | –
288.15 K, x1 = 0.07424 | – | 1699.8 ± 1.1
288.15 K, x1 = 0.08016 | – | 1708.5 ± 1.1
288.15 K, x1 = 0.08433 | – | 1714.1 ± 1.1
288.15 K, x1 = 0.08832 | – | 1719 ± 1.1
288.15 K, x1 = 0.09298 | – | 1724.2 ± 1.1
288.15 K, x1 = 0.09424 | 1075.05 ± 0.15 | –
288.15 K, x1 = 0.09657 | – | 1727.8 ± 1.1
288.15 K, x1 = 0.1007 | – | 1731.7 ± 1.1
288.15 K, x1 = 0.1021 | – | 1732.9 ± 1.1
288.15 K, x1 = 0.1045 | – | 1734.9 ± 1.1
288.15 K, x1 = 0.1091 | – | 1738.4 ± 1.1
288.15 K, x1 = 0.1208 | – | 1745.7 ± 1.1
288.15 K, x1 = 0.1237 | – | 1747.2 ± 1.1
288.15 K, x1 = 0.1281 | – | 1749.1 ± 1.1
288.15 K, x1 = 0.1302 | – | 1750 ± 1.1
288.15 K, x1 = 0.133 | – | 1751 ± 1.1
288.15 K, x1 = 0.1394 | – | 1753 ± 1.1
288.15 K, x1 = 0.1441 | – | 1754.2 ± 1.1
288.15 K, x1 = 0.1474 | – | 1754.8 ± 1.1
288.15 K, x1 = 0.1481 | 1094.39 ± 0.14 | –
288.15 K, x1 = 0.1578 | – | 1756.3 ± 1.1
288.15 K, x1 = 0.1678 | – | 1756.8 ± 1.1
288.15 K, x1 = 0.1774 | – | 1756.7 ± 1.1
288.15 K, x1 = 0.1904 | – | 1755.7 ± 1.1
288.15 K, x1 = 0.2006 | 1105.14 ± 0.14 | –
288.15 K, x1 = 0.2055 | – | 1753.5 ± 1.1
288.15 K, x1 = 0.2329 | – | 1748 ± 1.1
288.15 K, x1 = 0.2502 | 1111.33 ± 0.15 | –
288.15 K, x1 = 0.2559 | – | 1742.5 ± 1.1
288.15 K, x1 = 0.2967 | – | 1731.9 ± 1.2
288.15 K, x1 = 0.2988 | 1115.27 ± 0.15 | –
288.15 K, x1 = 0.3235 | – | 1725.1 ± 1.2
288.15 K, x1 = 0.3492 | 1118.09 ± 0.16 | –
288.15 K, x1 = 0.3699 | – | 1714 ± 1.2
288.15 K, x1 = 0.3925 | 1119.86 ± 0.17 | –
288.15 K, x1 = 0.4089 | – | 1705.2 ± 1.2
288.15 K, x1 = 0.4502 | 1121.62 ± 0.17 | –
288.15 K, x1 = 0.4877 | 1122.51 ± 0.18 | –
288.15 K, x1 = 0.5004 | 1122.77 ± 0.18 | –
288.15 K, x1 = 0.5029 | – | 1686.5 ± 1.2
288.15 K, x1 = 0.5739 | 1124.05 ± 0.2 | –
288.15 K, x1 = 0.58 | 1124.13 ± 0.2 | –
288.15 K, x1 = 0.6337 | – | 1667 ± 1.3
288.15 K, x1 = 0.6465 | 1124.97 ± 0.21 | –
288.15 K, x1 = 0.651 | 1125.02 ± 0.22 | –
288.15 K, x1 = 0.7008 | 1125.51 ± 0.23 | –
288.15 K, x1 = 0.745 | – | 1657.9 ± 1.3
288.15 K, x1 = 0.7471 | 1125.9 ± 0.24 | –
288.15 K, x1 = 0.7677 | 1126.06 ± 0.25 | –
288.15 K, x1 = 0.82 | 1126.42 ± 0.26 | –
288.15 K, x1 = 0.8623 | 1126.68 ± 0.28 | –
288.15 K, x1 = 0.8792 | 1126.78 ± 0.28 | –
288.15 K, x1 = 0.8795 | – | 1649.6 ± 1.4
288.15 K, x1 = 0.8975 | 1126.88 ± 0.29 | –
288.15 K, x1 = 0.9203 | 1127.01 ± 0.3 | –
288.15 K, x1 = 0.9514 | 1127.17 ± 0.31 | –
288.15 K, x1 = 0.9612 | – | 1645.9 ± 1.4
288.15 K, x1 = 0.9692 | 1127.27 ± 0.32 | –
288.15 K, x1 = 1 | 1127.43 ± 0.33 | 1643.9 ± 1.4
293.15 K, x1 = 0.000681 | – | 1485.6 ± 1.4
293.15 K, x1 = 0.002463 | – | 1494 ± 1.4
293.15 K, x1 = 0.005001 | – | 1505.7 ± 1.3
293.15 K, x1 = 0.007787 | – | 1518 ± 1.3
293.15 K, x1 = 0.01463 | – | 1546.1 ± 1.3
293.15 K, x1 = 0.02045 | – | 1567.9 ± 1.2
293.15 K, x1 = 0.0276 | – | 1592.1 ± 1.2
293.15 K, x1 = 0.03276 | – | 1608 ± 1.2
293.15 K, x1 = 0.0418 | – | 1632.7 ± 1.2
293.15 K, x1 = 0.04898 | – | 1649.9 ± 1.1
293.15 K, x1 = 0.05561 | – | 1664 ± 1.1
293.15 K, x1 = 0.06315 | – | 1678 ± 1.1
293.15 K, x1 = 0.0678 | – | 1685.8 ± 1.1
293.15 K, x1 = 0.0736 | – | 1694.6 ± 1.1
293.15 K, x1 = 0.08161 | – | 1705.1 ± 1.1
293.15 K, x1 = 0.08886 | – | 1713.2 ± 1.1
293.15 K, x1 = 0.09701 | – | 1721 ± 1.1
293.15 K, x1 = 0.1043 | – | 1726.7 ± 1.1
293.15 K, x1 = 0.1091 | – | 1730 ± 1.1
293.15 K, x1 = 0.1142 | – | 1733 ± 1.1
293.15 K, x1 = 0.12 | – | 1735.9 ± 1.1
293.15 K, x1 = 0.1325 | – | 1740.6 ± 1.1
293.15 K, x1 = 0.1374 | – | 1741.9 ± 1.1
293.15 K, x1 = 0.1445 | – | 1743.3 ± 1.1
